Data: US11834433B2, “Compounds” (INFLAZOME LIMITED, priority 2018, dated 2023)
Structures can show the parent of a compound that is named as a salt.

The molecules below were run on NLRP3 (assay: THP-1 cells pyroptosis assay (LPS + nigericin, resazurin read-out)). Settings: Homo sapiens, 1 μg/ml LPS, 5 μM nigericin, NLRP3 inhibitory activity.
Assay type: cell-based
Procedure: THP-1 cells (ATCC #TIB-202) were grown in RPMI containing L-glutamine (Gibco #11835) supplemented with 1 mM sodium pyruvate (Sigma #S8636) and penicillin (100 units/ml)/streptomycin (0.1 mg/ml) (Sigma #P4333) in 10% Fetal Bovine Serum (FBS) (Sigma #F0804). The cells were routinely passaged and grown to confluency (˜10^6 cells/ml). On the day of the experiment, THP-1 cells were harvested and resuspended into RPMI medium (without FBS). The cells were then counted and viability (>90%) checked by Trypan blue (Sigma #T8154). Appropriate dilutions were made to give a concentration of 625,000 cells/ml. To this diluted cell solution was added LPS (Sigma #L4524) to give a 1 μg/ml Final Assay Concentration (FAC). 40 μl of the final preparation was aliquoted into each well of a 96-well plate. The plate thus prepared was used for compound screening. The following method step-by-step assay was followed for compound screening. • 1. Seed THP-1 cells (25,000 cells/well) containing 1.0 μg/ml LPS in 40 μl of RPMI medium (without FBS) in 96-well, black walled, clear bottom cell culture plates coated with poly-D-lysine (VWR #734-0317) • 2. Add 5 μl compound (8 points half-log dilution, with 10 μM top dose) or vehicle (DMSO 0.1% FAC) to the appropriate wells • 3. Incubate for 3 hrs at 37° C., 5% CO2 • 4. Add 5 μl nigericin (Sigma #N7143) (FAC 5 μM) to all wells • 5. Incubate for 1 hr at 37° C., 5% CO2 • 6. At the end of the incubation period, spin plates at 300×g for 3 mins and remove supernatant • 7. Then add 50 μl of resazurin (Sigma #R7017) (FAC 100 μM resazurin in RPMI medium without FBS) and incubate plates for a further 1-2 hrs at 37° C. and 5% CO2 • 8. Plates were read in an Envision reader at Ex 560 nm and Em 590 nm • 9. IC50 data is fitted to a non-linear regression equation (log inhibitor vs response-variable slope 4-parameters) [table]

`COC(C)(C)Cn1ccc(S(=O)(=O)NC(=O)Cc2c3c(cc4c2CCC4)CCC3)n1` [Example 4, 2-(1,2,3,5,6,7-Hexahydro-s-indacen-4-yl)-N-((1-(2-methoxy-2-methylpropyl)-1H-pyrazol-3-yl)sulfonyl)acetamide] and `COC1(c2cc(S(=O)(=O)NC(=O)Cc3c4c(cc5c3CCC5)CCC4)nn2C(C)C)COC1` [Example 1, 2-(1,2,3,5,6,7-Hexahydro-s-indacen-4-yl)-N-((1-isopropyl-5-(3-methoxyoxetan-3-yl)-1H-pyrazol-3-yl)sulfonyl)acetamide] cannot be ordered by IC50: at most 5 µM for the first, at most 5 µM for the second.

`COc1cc(-c2cc(F)cc(C(C)C)c2CC(=O)NS(=O)(=O)c2ccn(C(C)(C)CO)n2)ccn1` [Example 9] and `COCC(C)(C)n1ccc(S(=O)(=O)NC(=O)Cc2c(-c3ccnc(OC)c3)cc(F)cc2C(C)C)n1` [Example 8] cannot be ordered by IC50: at most 5 µM for the first, at most 5 µM for the second.

`CC(C)c1cc(F)cc(C(C)C)c1CC(=O)NS(=O)(=O)c1ccn(C[C@@H](C)O)n1` [Example 6, (R)-2-(4-Fluoro-2,6-diisopropylphenyl)-N-((1-(2-hydroxypropyl)-1H-pyrazol-3-yl)sulfonyl)acetamide] and `COC1(c2cc(S(=O)(=O)NC(=O)Cc3c(C(C)C)cc(F)cc3C(C)C)nn2C(C)C)COC1` [Example 5, 2-(4-Fluoro-2,6-diisopropylphenyl)-N-((1-isopropyl-5-(3-methoxyoxetan-3-yl)-1H-pyrazol-3-yl)sulfonyl)acetamide] cannot be ordered by IC50: at most 5 µM for the first, at most 5 µM for the second.

`COc1cc(-c2cc(F)cc(C(C)C)c2CC(=O)NS(=O)(=O)c2cnn(CC(C)(C)O)c2)ccn1` [Example 7] and `COC1(c2cc(S(=O)(=O)NC(=O)Cc3c(-c4ccnc(C#N)c4)ccc4c3CCC4)nn2C(C)C)COC1` [Example 2, 2-(5-(2-Cyanopyridin-4-yl)-2,3-dihydro-1H-inden-4-yl)-N-((1-isopropyl-5-(3-methoxyoxetan-3-yl)-1H-pyrazol-3-yl)sulfonyl)acetamide, potassium Salt] cannot be ordered by IC50: at most 5 µM for the first, at most 10 µM for the second.

For `COC1(c2cc(S(=O)(=O)NC(=O)Cc3c4c(cc5c3CCC5)CCC4)nn2C2CC2)COC1` [Example 3, N-((1-Cyclopropyl-5-(3-methoxyoxetan-3-yl)-1H-pyrazol-3-yl)sulfonyl)-2-(1,2,3,5,6,7-hexahydro-s-indacen-4-yl)acetamide], the IC50 was at most 5 µM.
